# Laboratory results published in PubChem BioAssay AID2060623 (Molecular Pharmacology Branch, DTP, NCI, 2025).
# System: 227483-062-R1-J1-PDC complex spheroids with HUVEC/MSC, viability
# Assay: Anticancer human tumor 227483-062-R1-J1-PDC patient-derived pancreatic carcinoma cell line growth inhibition [CLK]
# Details: for IC50: curve of first compound; for viability, T/C: stronger effect = lower value
# Summary of the method: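 Patient-derived tumor cells grown as complex spheroids with HUVEC endothelial cells and mesenchymal stem cells, treated with drug combinations. Concentrations descend in half-log steps from near clinical Cmax, or from 10 microM if Cmax unknown.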
# [1] = second compound 0.0316 µM, first compound 0.0316 µM
# [2] = second compound 0.0316 µM, first compound 0.1 µM
# [3] = second compound 0.1 µM, first compound 0.0316 µM
# [4] = second compound 0.1 µM, first compound 0.1 µM
# [5] = second compound 0.316 µM, first compound 0.0316 µM
# [6] = second compound 0.316 µM, first compound 0.1 µM
# [7] = second compound 1 µM, first compound 0.0316 µM
# [8] = second compound 1 µM, first compound 0.1 µM
# [9] = second compound 3.16 µM, first compound 0.0316 µM
# [10] = second compound 3.16 µM, first compound 0.1 µM
# [11] = second compound 10 µM, first compound 0.0316 µM
# [12] = second compound 10 µM, first compound 0.1 µM
# [13] = second compound 0.0316 µM, first compound 0.316 µM
# [14] = second compound 0.0316 µM, first compound 1 µM
# [15] = second compound 0.0316 µM, first compound 3.16 µM
# [16] = second compound 0.0316 µM, first compound 10 µM
# [17] = second compound 0.1 µM, first compound 0.316 µM
# [18] = second compound 0.1 µM, first compound 1 µM
# [19] = second compound 0.1 µM, first compound 3.16 µM
# [20] = second compound 0.1 µM, first compound 10 µM
# [21] = second compound 0.316 µM, first compound 0.316 µM
# [22] = second compound 0.316 µM, first compound 1 µM
# [23] = second compound 0.316 µM, first compound 3.16 µM
# [24] = second compound 0.316 µM, first compound 10 µM
# [25] = second compound 1 µM, first compound 0.316 µM
# [26] = second compound 1 µM, first compound 1 µM
# [27] = second compound 1 µM, first compound 3.16 µM
# [28] = second compound 1 µM, first compound 10 µM
# [29] = second compound 3.16 µM, first compound 0.316 µM
# [30] = second compound 3.16 µM, first compound 1 µM
# [31] = second compound 3.16 µM, first compound 3.16 µM
# [32] = second compound 3.16 µM, first compound 10 µM
# [33] = second compound 10 µM, first compound 0.316 µM
# [34] = second compound 10 µM, first compound 1 µM
# [35] = second compound 10 µM, first compound 3.16 µM
# [36] = second compound 10 µM, first compound 10 µM
# 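Note: spheroids exposed to compounds for seven days before readout.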
# 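Throughout, for viability, T/C: percent of DMSO vehicle control luminescence as 100% viability.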
structure (smiles),measurement,setting,value
Cn1ncnc1[C@H]1c2n[nH]c(=O)c3cc(F)cc(c23)N[C@@H]1c1ccc(F)cc1 + CN1CCN(c2cc(C(=O)Nc3cc4cc(-c5cnn(C)c5)ccc4cn3)ccn2)CC1,IC50,second compound 0.0316 µM,> 0.1 µM
same,IC50,second compound 0.1 µM,> 0.1 µM
same,IC50,second compound 0.316 µM,< 0.000316 µM
same,IC50,second compound 1 µM,< 0.000316 µM
same,IC50,second compound 3.16 µM,< 0.000316 µM
same,IC50,second compound 10 µM,< 0.000316 µM
same,"viability, T/C","second compound 0.0316 µM, first compound 0.000316 µM",114%
same,"viability, T/C","second compound 0.0316 µM, first compound 0.001 µM",118%
same,"viability, T/C","second compound 0.0316 µM, first compound 0.00316 µM",114%
same,"viability, T/C","second compound 0.0316 µM, first compound 0.01 µM",101%
same,"viability, T/C",[1],95.3%
same,"viability, T/C",[2],92.3%
same,"viability, T/C","second compound 0.1 µM, first compound 0.000316 µM",44.2%
same,"viability, T/C","second compound 0.1 µM, first compound 0.001 µM",66.2%
same,"viability, T/C","second compound 0.1 µM, first compound 0.00316 µM",53.6%
same,"viability, T/C","second compound 0.1 µM, first compound 0.01 µM",53.5%
same,"viability, T/C",[3],56.3%
same,"viability, T/C",[4],54.8%
same,"viability, T/C","second compound 0.316 µM, first compound 0.000316 µM",3.12%
same,"viability, T/C","second compound 0.316 µM, first compound 0.001 µM",3.26%
same,"viability, T/C","second compound 0.316 µM, first compound 0.00316 µM",3.58%
same,"viability, T/C","second compound 0.316 µM, first compound 0.01 µM",4.15%
same,"viability, T/C",[5],3.29%
same,"viability, T/C",[6],4.45%
same,"viability, T/C","second compound 1 µM, first compound 0.000316 µM",1.25%
same,"viability, T/C","second compound 1 µM, first compound 0.001 µM",1.34%
same,"viability, T/C","second compound 1 µM, first compound 0.00316 µM",1.34%
same,"viability, T/C","second compound 1 µM, first compound 0.01 µM",2.07%
same,"viability, T/C",[7],1.23%
same,"viability, T/C",[8],1.14%
same,"viability, T/C","second compound 3.16 µM, first compound 0.000316 µM",1.84%
same,"viability, T/C","second compound 3.16 µM, first compound 0.001 µM",2.14%
same,"viability, T/C","second compound 3.16 µM, first compound 0.00316 µM",1.91%
same,"viability, T/C","second compound 3.16 µM, first compound 0.01 µM",2.43%
same,"viability, T/C",[9],1.6%
same,"viability, T/C",[10],1.89%
same,"viability, T/C","second compound 10 µM, first compound 0.000316 µM",1.14%
same,"viability, T/C","second compound 10 µM, first compound 0.001 µM",1.09%
same,"viability, T/C","second compound 10 µM, first compound 0.00316 µM",1.63%
same,"viability, T/C","second compound 10 µM, first compound 0.01 µM",2.37%
same,"viability, T/C",[11],1.2%
same,"viability, T/C",[12],1%
Nc1ccn(C2OC(CO)C(O)C2(F)F)c(=O)n1 (stereo unspecified) + CN1CCN(c2cc(C(=O)Nc3cc4cc(-c5cnn(C)c5)ccc4cn3)ccn2)CC1,IC50,second compound 0.0316 µM,0.0725 µM
same,IC50,second compound 0.1 µM,< 0.0316 µM
same,IC50,second compound 0.316 µM,< 0.0316 µM
same,IC50,second compound 1 µM,< 0.0316 µM
same,IC50,second compound 3.16 µM,< 0.0316 µM
same,IC50,second compound 10 µM,< 0.0316 µM
same,"viability, T/C",[1],76%
same,"viability, T/C",[2],39%
same,"viability, T/C",[13],32.1%
same,"viability, T/C",[14],35.6%
same,"viability, T/C",[15],27.6%
same,"viability, T/C",[16],24.1%
same,"viability, T/C",[3],36.7%
same,"viability, T/C",[4],25.1%
same,"viability, T/C",[17],24.1%
same,"viability, T/C",[18],21%
same,"viability, T/C",[19],22.5%
same,"viability, T/C",[20],15%
same,"viability, T/C",[5],4.9%
same,"viability, T/C",[6],3.69%
same,"viability, T/C",[21],3.08%
same,"viability, T/C",[22],2.47%
same,"viability, T/C",[23],2.75%
same,"viability, T/C",[24],1.97%
same,"viability, T/C",[7],1.05%
same,"viability, T/C",[8],1.34%
same,"viability, T/C",[25],2.72%
same,"viability, T/C",[26],2.08%
same,"viability, T/C",[27],1.09%
same,"viability, T/C",[28],1.14%
same,"viability, T/C",[9],2.12%
same,"viability, T/C",[10],2.2%
same,"viability, T/C",[29],3.37%
same,"viability, T/C",[30],1.88%
same,"viability, T/C",[31],1.71%
same,"viability, T/C",[32],1.79%
same,"viability, T/C",[11],0.96%
same,"viability, T/C",[12],0.85%
same,"viability, T/C",[33],1.06%
same,"viability, T/C",[34],1.19%
same,"viability, T/C",[35],0.9%
same,"viability, T/C",[36],0.79%
O=c1[nH]cc(F)c(=O)[nH]1 + CN1CCN(c2cc(C(=O)Nc3cc4cc(-c5cnn(C)c5)ccc4cn3)ccn2)CC1,IC50,second compound 0.0316 µM,2.92 µM
same,IC50,second compound 0.1 µM,0.362 µM
same,IC50,second compound 0.316 µM,< 0.0316 µM
same,IC50,second compound 1 µM,< 0.0316 µM
same,IC50,second compound 3.16 µM,< 0.0316 µM
same,IC50,second compound 10 µM,< 0.0316 µM
same,"viability, T/C",[1],113%
same,"viability, T/C",[2],117%
same,"viability, T/C",[13],109%
same,"viability, T/C",[14],76.9%
same,"viability, T/C",[15],50.8%
same,"viability, T/C",[16],31.9%
same,"viability, T/C",[3],69.3%
same,"viability, T/C",[4],57.1%
same,"viability, T/C",[17],58.1%
same,"viability, T/C",[18],38.1%
same,"viability, T/C",[19],27.5%
same,"viability, T/C",[20],20.5%
same,"viability, T/C",[5],6.26%
same,"viability, T/C",[6],5.02%
same,"viability, T/C",[21],5.2%
same,"viability, T/C",[22],4.61%
same,"viability, T/C",[23],4.43%
same,"viability, T/C",[24],3.27%
same,"viability, T/C",[7],1.65%
same,"viability, T/C",[8],2.05%
same,"viability, T/C",[25],5.56%
same,"viability, T/C",[26],1.25%
same,"viability, T/C",[27],1.55%
same,"viability, T/C",[28],1.14%
same,"viability, T/C",[9],4.69%
same,"viability, T/C",[10],2.74%
same,"viability, T/C",[29],3.16%
same,"viability, T/C",[30],2.23%
same,"viability, T/C",[31],2.22%
same,"viability, T/C",[32],2.26%
same,"viability, T/C",[11],1.91%
same,"viability, T/C",[12],1.38%
same,"viability, T/C",[33],1.3%
same,"viability, T/C",[34],3.91%
same,"viability, T/C",[35],1.9%
same,"viability, T/C",[36],2.3%
